# Experimental data as given in US10738028B2, “Spiro three-membered ring, spiro five-membered ring peptide deformylase inhibitor and use thereof in antibacteria and anti-tumor” (priority 2016, dated 2020).
# Tests used:
# Assay type in all cases: cell-based
# [1] = tested on: methicillin-sensitive Staphylococcus epidermidis (MSSE); assay: MIC, two-fold agar dilution (CLSI), clinical isolates
# How it was run: (§1)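 Test samples were assayed by the CLSI-recommended two-fold agar dilution method, and the minimum inhibitory concentration against each tested strain was determined.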
# [2] = tested on: Moraxella catarrhalis (BCA); assay: as above
# How it was run: as §1
# [3] = tested on: Streptococcus pneoumoniae (SPN); assay: as above
# How it was run: as §1
# [4] = tested on: methicillin-resistant Staphylococcus aureus (MRSA); assay: as above
# How it was run: as §1
# [5] = tested on: methicillin-resistant Staphylococcus epidermidis (MRSE); assay: as above
# How it was run: as §1
# [6] = tested on: Enterococcus faecium (EFM); assay: as above
# How it was run: as §1
# [7] = tested on: Enterococcus faecalis (EFA); assay: as above
# How it was run: as §1
# [8] = tested on: methicillin-sensitive Staphylococcus aureus (MSSA); assay: as above
# How it was run: as §1
# [9] = tested on: Escherichia coli (including ESBLs, non-ESBLs); assay: as above
# How it was run: as §1
# [10] = tested on: MGC-803 gastric cancer cell line; assay: CCK-8 proliferation inhibition; conditions: concentration of 30 μM; for inhibition at 30 µM: Homo sapiens, MGC-803, 72 h
# How it was run: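 Cells seeded at 2000 cells/well, cultured overnight at 37 °C, 5% CO2, then exposed 72 h to compound dilutions in medium with 10% newborn bovine serum (1‰ DMSO control). Viability read with 1:10 diluted CCK-8 solution. Media: PC3 in F12; MGC-803 and Jurkat in 1640; MCF-7 in DMEM high glucose.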
# [11] = tested on: BEL-7402 liver cancer cell line; assay: CCK-8 proliferation inhibition; conditions: concentration of 30 μM; for Inhibition of proliferation, Liver cancer BEL-7402: 72 hours, 30 µM
# How it was run: (§2)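 Plating at 2000 cells/well, then incubation overnight at 37° C. Next, a range of compound concentrations for 72 hours (control 1‰ DMSO). Finally, medium decanted and CCK-8 diluted 1:10 added.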
# [12] = tested on: A549 lung cancer cell line; assay: CCK-8 proliferation inhibition; conditions: concentration of 30 μM; for inhibition at 30 µM: Homo sapiens, A549, 72 h; for Inhibition of proliferation, Lung cancer A549: 72 hours, 30 µM
# How it was run: as §2
# [13] = tested on: HCT-116 colorectal cancer cell line; assay: CCK-8 proliferation inhibition; conditions: concentration of 30 μM, 72 hours, CCK-8; for HCT116 inhibition rate/%: 30 µM
# How it was run: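 Cells seeded at 2000 cells/well, cultured overnight at 37 °C, 5% CO2, then exposed to compound (DMSO; control 1‰ DMSO) for 72 h in McCoy's 5A with 10% newborn bovine serum. Viability read with 1:10 diluted CCK-8.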
compound,measurement,setting,value
"CCCC[C@H](CC(=O)NO)C(=O)N1CC2(CCCC2)C[C@H]1C(=O)Nc1ccc(F)cn1 [Example 78, (S)—N-(5-fluoropyridin-2-yl)-2-((R)-2-(2-(hydroxyamino)-2-oxoethyl)hexanoyl)-2-spiro[4.4]nonane-3-carboxamide]","Anti-bacterial activity (MIC), strain MSSE 15-3",[1]; clinical isolate MSSE 15-3,0.25 µg/mL
same,"Anti-bacterial activity (MIC), strain MSSE 15-4",[1]; clinical isolate MSSE 15-4,0.25 µg/mL
same,"Anti-bacterial activity (MIC), strain MSSE 15-5",[1]; clinical isolate MSSE 15-5,0.25 µg/mL
same,"Anti-bacterial activity (MIC), strain MSSE 15-6",[1]; clinical isolate MSSE 15-6,0.03 µg/mL
same,Anti-bacterial activity (MIC),[2]; strain BCA 14-1,0.5 µg/mL
same,Anti-bacterial activity (MIC),[2]; strain BCA 14-4,1 µg/mL
same,Anti-bacterial activity (MIC),[2]; strain BCA 14-5,1 µg/mL
same,Anti-bacterial activity (MIC),[2]; strain BCA 14-6,0.5 µg/mL
same,Anti-bacterial activity (MIC),[2]; strain BCA 14-7,0.5 µg/mL
same,Anti-bacterial activity (MIC),[2]; strain BCA 14-8,0.25 µg/mL
same,Anti-bacterial activity (MIC),[2]; strain BCA 14-10,0.25 µg/mL
same,Anti-bacterial activity (MIC),[3]; strain SPN 16-2,0.03 µg/mL
same,Anti-bacterial activity (MIC),[3]; strain SPN 16-4,0.25 µg/mL
same,"Anti-bacterial activity (MIC), strain MRSA 15-1",[4]; clinical isolate MRSA 15-1,0.06 µg/mL
same,"Anti-bacterial activity (MIC), strain MRSA 15-2",[4]; clinical isolate MRSA 15-2,0.5 µg/mL
same,"Anti-bacterial activity (MIC), strain MRSA 15-3",[4]; clinical isolate MRSA 15-3,0.125 µg/mL
same,"Anti-bacterial activity (MIC), strain MRSA 15-4",[4]; clinical isolate MRSA 15-4,0.5 µg/mL
same,"Anti-bacterial activity (MIC), strain MRSE 15-1",[5]; clinical isolate MRSE 15-1,0.125 µg/mL
same,"Anti-bacterial activity (MIC), strain MRSE 15-2",[5]; clinical isolate MRSE 15-2,1 µg/mL
same,"Anti-bacterial activity (MIC), strain MRSE 15-3",[5]; clinical isolate MRSE 15-3,1 µg/mL
same,"Anti-bacterial activity (MIC), strain MRSE 15-7",[5]; clinical isolate MRSE 15-7,1 µg/mL
same,Anti-bacterial activity (MIC),[6]; strain EFM 15-1,> 32 µg/mL
same,Anti-bacterial activity (MIC),[6]; strain EFM 15-2,> 32 µg/mL
same,Anti-bacterial activity (MIC),[6]; strain EFM 15-3,> 32 µg/mL
same,Anti-bacterial activity (MIC),[6]; strain EFM 15-4,2 µg/mL
same,Anti-bacterial activity (MIC),[6]; strain EFM 15-5,0.25 µg/mL
same,Anti-bacterial activity (MIC),[6]; strain EFM 15-6,1 µg/mL
same,Anti-bacterial activity (MIC),[7]; strain EFA 15-1,> 32 µg/mL
same,Anti-bacterial activity (MIC),[7]; strain EFA 15-2,> 32 µg/mL
same,Anti-bacterial activity (MIC),[7]; strain EFA 15-3,> 32 µg/mL
same,Anti-bacterial activity (MIC),[7]; strain EFA 15-4,> 32 µg/mL
same,Anti-bacterial activity (MIC),[7]; strain EFA 15-5,> 32 µg/mL
same,Anti-bacterial activity (MIC),[7]; strain EFA 15-6,> 32 µg/mL
same,Anti-bacterial activity (MIC),[7]; strain EFA 15-9,> 32 µg/mL
same,"Anti-bacterial activity (MIC), strain MSSA 15-3",[8]; clinical isolate MSSA 15-3,0.5 µg/mL
same,"Anti-bacterial activity (MIC), strain MSSA 15-4",[8]; clinical isolate MSSA 15-4,0.125 µg/mL
same,"Anti-bacterial activity (MIC), strain MSSA 15-5",[8]; clinical isolate MSSA 15-5,0.03 µg/mL
same,"Anti-bacterial activity (MIC), strain MSSA 15-6",[8]; clinical isolate MSSA 15-6,> 32 µg/mL
same,"Anti-bacterial activity (MIC), strain ECO+ 15-1",[9]; clinical isolate ECO+ 15-1,16 µg/mL
same,"Anti-bacterial activity (MIC), strain ECO+ 15-2",[9]; clinical isolate ECO+ 15-2,> 32 µg/mL
same,"Anti-bacterial activity (MIC), strain ECO+ 15-3",[9]; clinical isolate ECO+ 15-3,> 32 µg/mL
same,"Anti-bacterial activity (MIC), strain ECO+ 15-4",[9]; clinical isolate ECO+ 15-4,> 32 µg/mL
same,"Anti-bacterial activity (MIC), strain ECO− 15-1",[9]; clinical isolate ECO− 15-1,> 32 µg/mL
same,"Anti-bacterial activity (MIC), strain ECO− 15-2",[9]; clinical isolate ECO− 15-2,> 32 µg/mL
same,"Anti-bacterial activity (MIC), strain ECO− 15-3",[9]; clinical isolate ECO− 15-3,> 32 µg/mL
same,"Anti-bacterial activity (MIC), strain ECO− 15-4",[9]; clinical isolate ECO− 15-4,> 32 µg/mL
same,inhibition at 30 µM,[10],44%
same,inhibition at 30 µM,"[11]; Homo sapiens, Bel-7402, 72 h",> 50%
same,"Inhibition of proliferation, Liver cancer BEL-7402",[11],67%
same,inhibition at 30 µM,[12],> 50%
same,"Inhibition of proliferation, Lung cancer A549",[12],54%
same,inhibition at 30 µM,"[13]; Homo sapiens, HCT-116, 72 h, read-out: HCT116 inhibition rate/%",> 50%
same,HCT116 inhibition rate/%,[13],52%
"CCCC[C@H](CC(=O)NO)C(=O)N1CC2(CCCC2)C[C@H]1C(=O)Nc1ncc(C)s1 [Example 79, (S)-2-((R)-2-(2-(hydroxyamino)-2-oxoethyl)hexanoyl)-N-(5-methylthiazol-2-yl)-2-azaspiro[4.4]nonane-3-amide]",Anti-bacterial activity (MIC),[1]; strain MSSE 15-3,0.25 µg/mL
same,Anti-bacterial activity (MIC),[1]; strain MSSE 15-4,1 µg/mL
same,Anti-bacterial activity (MIC),[1]; strain MSSE 15-5,1 µg/mL
same,Anti-bacterial activity (MIC),[1]; strain MSSE 15-6,0.03 µg/mL
same,Anti-bacterial activity (MIC),[2]; strain BCA 14-1,0.25 µg/mL
same,Anti-bacterial activity (MIC),[2]; strain BCA 14-4,1 µg/mL
same,Anti-bacterial activity (MIC),[2]; strain BCA 14-5,0.25 µg/mL
same,Anti-bacterial activity (MIC),[2]; strain BCA 14-6,1 µg/mL
same,Anti-bacterial activity (MIC),[2]; strain BCA 14-7,0.5 µg/mL
same,Anti-bacterial activity (MIC),[2]; strain BCA 14-8,0.5 µg/mL
same,Anti-bacterial activity (MIC),[2]; strain BCA 14-10,0.25 µg/mL
same,Anti-bacterial activity (MIC),[3]; strain SPN 16-2,0.06 µg/mL
same,Anti-bacterial activity (MIC),[3]; strain SPN 16-4,0.25 µg/mL
same,Anti-bacterial activity (MIC),[4]; strain MRSA 15-1,0.25 µg/mL
same,Anti-bacterial activity (MIC),[4]; strain MRSA 15-2,0.25 µg/mL
same,Anti-bacterial activity (MIC),[4]; strain MRSA 15-3,0.125 µg/mL
same,Anti-bacterial activity (MIC),[4]; strain MRSA 15-4,0.25 µg/mL
same,Anti-bacterial activity (MIC),[5]; strain MRSE 15-1,0.25 µg/mL
same,Anti-bacterial activity (MIC),[5]; strain MRSE 15-2,2 µg/mL
same,Anti-bacterial activity (MIC),[5]; strain MRSE 15-3,2 µg/mL
same,Anti-bacterial activity (MIC),[5]; strain MRSE 15-7,2 µg/mL
same,Anti-bacterial activity (MIC),[6]; strain EFM 15-1,32 µg/mL
same,Anti-bacterial activity (MIC),[6]; strain EFM 15-2,32 µg/mL
same,Anti-bacterial activity (MIC),[6]; strain EFM 15-3,32 µg/mL
same,Anti-bacterial activity (MIC),[6]; strain EFM 15-4,1 µg/mL
same,Anti-bacterial activity (MIC),[6]; strain EFM 15-5,1 µg/mL
same,Anti-bacterial activity (MIC),[6]; strain EFM 15-6,1 µg/mL
same,Anti-bacterial activity (MIC),[7]; strain EFA 15-1,32 µg/mL
same,Anti-bacterial activity (MIC),[7]; strain EFA 15-2,32 µg/mL
same,Anti-bacterial activity (MIC),[7]; strain EFA 15-3,32 µg/mL
same,Anti-bacterial activity (MIC),[7]; strain EFA 15-4,32 µg/mL
same,Anti-bacterial activity (MIC),[7]; strain EFA 15-5,32 µg/mL
same,Anti-bacterial activity (MIC),[7]; strain EFA 15-6,32 µg/mL
same,Anti-bacterial activity (MIC),[7]; strain EFA 15-9,32 µg/mL
same,Anti-bacterial activity (MIC),[8]; strain MSSA 15-3,0.5 µg/mL
same,Anti-bacterial activity (MIC),[8]; strain MSSA 15-4,0.125 µg/mL
same,Anti-bacterial activity (MIC),[8]; strain MSSA 15-5,0.125 µg/mL
same,Anti-bacterial activity (MIC),[8]; strain MSSA 15-6,> 32 µg/mL
same,Anti-bacterial activity (MIC),[9]; strain ECO+ 15-1,32 µg/mL
same,Anti-bacterial activity (MIC),[9]; strain ECO+ 15-2,> 32 µg/mL
same,Anti-bacterial activity (MIC),[9]; strain ECO+ 15-3,> 32 µg/mL
same,Anti-bacterial activity (MIC),[9]; strain ECO+ 15-4,> 32 µg/mL
same,Anti-bacterial activity (MIC),[9]; strain ECO− 15-1,> 32 µg/mL
same,Anti-bacterial activity (MIC),[9]; strain ECO− 15-2,> 32 µg/mL
same,Anti-bacterial activity (MIC),[9]; strain ECO− 15-3,> 32 µg/mL
same,Anti-bacterial activity (MIC),[9]; strain ECO− 15-4,> 32 µg/mL
same,inhibition at 30 µM,[10],> 50%
same,"Inhibition of proliferation, Gastric cancer MGC-803","[10]; 72 hours, 30 µM",54%
same,"Inhibition of proliferation, Liver cancer BEL-7402",[11],77%
same,inhibition at 30 µM,[12],> 50%
same,"Inhibition of proliferation, Lung cancer A549",[12],50%
same,HCT116 inhibition rate/%,[13],75%
